Assay results taken from publication PMC11864979, “First-in-class ultralong-target-residence-time p38α inhibitors as a mitosis-targeted therapy for colorectal cancer” (Nature Cancer, 2025).
Read-outs that look alike come from different tables or passages of the source.

Tests used:
Test in all cases: selectivity profiling in a panel of 340 wild-type kinases (Reaction Biology Europe)
Assay type in all cases: binding
[1] = biological target: T1, 340 wild-type kinases (Homo sapiens, UniProt Q9P289)
T1 construct: purchased Reaction Biology Europe

[2] = biological target: T2, 340 wild-type kinases (Homo sapiens, UniProt O14965)
T2 construct: purchased Reaction Biology Europe
T2 sequence (O14965 1-403): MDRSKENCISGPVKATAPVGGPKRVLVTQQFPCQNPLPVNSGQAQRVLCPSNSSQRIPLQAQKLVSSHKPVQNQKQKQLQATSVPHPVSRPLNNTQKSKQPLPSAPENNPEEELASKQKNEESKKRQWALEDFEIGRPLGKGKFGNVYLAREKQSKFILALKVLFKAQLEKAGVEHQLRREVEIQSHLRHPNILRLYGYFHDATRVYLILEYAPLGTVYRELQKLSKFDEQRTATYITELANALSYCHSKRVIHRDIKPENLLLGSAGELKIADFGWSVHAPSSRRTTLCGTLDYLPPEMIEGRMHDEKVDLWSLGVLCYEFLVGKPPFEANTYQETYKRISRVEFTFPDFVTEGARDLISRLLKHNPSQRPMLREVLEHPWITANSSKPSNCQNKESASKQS

[3] = biological target: T3, 340 wild-type kinases (Homo sapiens, UniProt P53667)
T3 construct: purchased Reaction Biology Europe

[4] = biological target: T4, 340 wild-type kinases (Homo sapiens, UniProt Q9Y2K2)
T4 construct: purchased Reaction Biology Europe

[5] = biological target: T5, 340 wild-type kinases (Homo sapiens, UniProt Q96PY6)
T5 construct: purchased Reaction Biology Europe
T5 sequence (Q96PY6 1-1258): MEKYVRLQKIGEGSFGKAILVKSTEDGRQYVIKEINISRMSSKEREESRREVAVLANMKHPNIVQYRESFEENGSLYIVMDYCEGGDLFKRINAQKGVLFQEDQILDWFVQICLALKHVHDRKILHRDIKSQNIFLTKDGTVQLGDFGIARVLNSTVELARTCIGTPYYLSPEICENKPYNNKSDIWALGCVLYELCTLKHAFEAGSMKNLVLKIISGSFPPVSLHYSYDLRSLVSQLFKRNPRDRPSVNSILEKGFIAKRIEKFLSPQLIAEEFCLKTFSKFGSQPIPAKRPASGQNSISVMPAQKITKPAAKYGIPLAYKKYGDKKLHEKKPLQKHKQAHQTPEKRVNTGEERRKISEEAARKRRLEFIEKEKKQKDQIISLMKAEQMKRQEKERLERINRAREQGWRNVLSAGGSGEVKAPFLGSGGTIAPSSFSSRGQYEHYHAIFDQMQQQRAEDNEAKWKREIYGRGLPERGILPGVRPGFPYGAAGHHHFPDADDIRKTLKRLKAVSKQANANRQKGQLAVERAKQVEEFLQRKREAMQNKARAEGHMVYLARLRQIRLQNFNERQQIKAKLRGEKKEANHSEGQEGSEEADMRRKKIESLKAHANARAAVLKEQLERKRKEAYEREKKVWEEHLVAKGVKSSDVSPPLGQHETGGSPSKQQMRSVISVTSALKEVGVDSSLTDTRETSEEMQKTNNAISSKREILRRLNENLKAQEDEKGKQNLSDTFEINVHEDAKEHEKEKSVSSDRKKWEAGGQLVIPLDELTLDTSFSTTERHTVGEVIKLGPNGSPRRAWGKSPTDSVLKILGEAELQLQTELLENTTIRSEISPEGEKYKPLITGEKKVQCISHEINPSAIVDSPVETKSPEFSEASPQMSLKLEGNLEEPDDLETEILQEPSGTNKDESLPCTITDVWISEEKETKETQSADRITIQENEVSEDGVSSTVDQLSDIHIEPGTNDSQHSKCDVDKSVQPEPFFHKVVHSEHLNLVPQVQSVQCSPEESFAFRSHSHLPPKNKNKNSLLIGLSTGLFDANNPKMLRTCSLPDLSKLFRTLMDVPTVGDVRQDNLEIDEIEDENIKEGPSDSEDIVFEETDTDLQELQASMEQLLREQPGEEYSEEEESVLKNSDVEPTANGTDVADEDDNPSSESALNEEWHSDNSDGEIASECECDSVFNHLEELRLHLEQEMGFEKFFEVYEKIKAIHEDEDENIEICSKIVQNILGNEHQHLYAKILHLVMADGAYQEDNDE

[6] = biological target: T6, 340 wild-type kinases (Homo sapiens, UniProt P35626)
T6 construct: purchased Reaction Biology Europe
T6 sequence (P35626 1-688): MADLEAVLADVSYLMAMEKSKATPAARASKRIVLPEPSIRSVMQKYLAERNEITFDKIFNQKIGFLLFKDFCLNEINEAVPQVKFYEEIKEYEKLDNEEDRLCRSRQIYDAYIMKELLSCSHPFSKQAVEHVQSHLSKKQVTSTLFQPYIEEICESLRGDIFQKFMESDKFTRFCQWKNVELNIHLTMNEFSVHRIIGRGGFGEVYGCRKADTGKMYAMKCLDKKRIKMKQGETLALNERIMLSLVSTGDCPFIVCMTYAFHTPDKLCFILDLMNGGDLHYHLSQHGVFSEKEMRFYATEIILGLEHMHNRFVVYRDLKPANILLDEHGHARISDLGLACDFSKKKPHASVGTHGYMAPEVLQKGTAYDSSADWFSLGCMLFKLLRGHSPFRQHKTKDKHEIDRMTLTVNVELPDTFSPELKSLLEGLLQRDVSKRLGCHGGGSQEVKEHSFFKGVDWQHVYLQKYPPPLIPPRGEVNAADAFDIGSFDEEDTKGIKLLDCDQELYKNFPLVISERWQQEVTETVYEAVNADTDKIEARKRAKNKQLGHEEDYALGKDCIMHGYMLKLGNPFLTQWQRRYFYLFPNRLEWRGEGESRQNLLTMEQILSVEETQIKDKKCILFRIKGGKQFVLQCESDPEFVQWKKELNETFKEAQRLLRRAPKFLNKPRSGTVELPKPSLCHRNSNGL

T4 sequence (Q9Y2K2 whole entry): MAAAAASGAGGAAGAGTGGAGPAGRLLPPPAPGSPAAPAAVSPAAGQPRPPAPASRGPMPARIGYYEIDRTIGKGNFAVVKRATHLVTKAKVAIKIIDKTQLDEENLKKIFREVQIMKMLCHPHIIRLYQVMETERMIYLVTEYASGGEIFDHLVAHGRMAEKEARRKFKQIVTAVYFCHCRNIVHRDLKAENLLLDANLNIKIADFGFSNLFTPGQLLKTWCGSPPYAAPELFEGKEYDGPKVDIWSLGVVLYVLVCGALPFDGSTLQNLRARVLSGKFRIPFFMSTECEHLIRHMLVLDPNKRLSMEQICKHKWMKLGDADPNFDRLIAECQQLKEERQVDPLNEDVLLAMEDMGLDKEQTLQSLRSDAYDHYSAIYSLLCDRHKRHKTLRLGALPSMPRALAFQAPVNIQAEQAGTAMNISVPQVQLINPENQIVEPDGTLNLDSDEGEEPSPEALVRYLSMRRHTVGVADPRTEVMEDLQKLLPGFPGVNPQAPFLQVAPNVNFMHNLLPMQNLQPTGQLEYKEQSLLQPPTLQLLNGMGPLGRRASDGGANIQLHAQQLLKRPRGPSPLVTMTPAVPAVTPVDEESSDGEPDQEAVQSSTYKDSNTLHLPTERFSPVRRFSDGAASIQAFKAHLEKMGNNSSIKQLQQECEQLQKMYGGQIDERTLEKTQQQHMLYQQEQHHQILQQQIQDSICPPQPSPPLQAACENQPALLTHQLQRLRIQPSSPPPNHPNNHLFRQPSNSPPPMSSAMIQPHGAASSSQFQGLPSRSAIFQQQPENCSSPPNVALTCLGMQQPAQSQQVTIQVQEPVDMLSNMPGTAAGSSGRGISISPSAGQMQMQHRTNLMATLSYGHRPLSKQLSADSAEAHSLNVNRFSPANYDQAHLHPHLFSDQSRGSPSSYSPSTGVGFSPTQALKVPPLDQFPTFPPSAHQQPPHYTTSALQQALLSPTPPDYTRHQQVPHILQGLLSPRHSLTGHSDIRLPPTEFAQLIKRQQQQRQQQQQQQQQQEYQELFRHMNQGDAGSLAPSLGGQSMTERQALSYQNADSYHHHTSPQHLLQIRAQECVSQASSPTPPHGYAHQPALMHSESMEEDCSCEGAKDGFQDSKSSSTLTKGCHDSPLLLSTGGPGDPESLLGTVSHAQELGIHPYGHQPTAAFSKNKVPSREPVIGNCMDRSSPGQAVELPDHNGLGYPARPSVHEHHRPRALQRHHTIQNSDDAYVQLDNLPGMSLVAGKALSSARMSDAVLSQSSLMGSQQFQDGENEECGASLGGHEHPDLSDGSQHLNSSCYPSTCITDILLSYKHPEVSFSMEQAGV
T3 sequence (P53667 whole entry): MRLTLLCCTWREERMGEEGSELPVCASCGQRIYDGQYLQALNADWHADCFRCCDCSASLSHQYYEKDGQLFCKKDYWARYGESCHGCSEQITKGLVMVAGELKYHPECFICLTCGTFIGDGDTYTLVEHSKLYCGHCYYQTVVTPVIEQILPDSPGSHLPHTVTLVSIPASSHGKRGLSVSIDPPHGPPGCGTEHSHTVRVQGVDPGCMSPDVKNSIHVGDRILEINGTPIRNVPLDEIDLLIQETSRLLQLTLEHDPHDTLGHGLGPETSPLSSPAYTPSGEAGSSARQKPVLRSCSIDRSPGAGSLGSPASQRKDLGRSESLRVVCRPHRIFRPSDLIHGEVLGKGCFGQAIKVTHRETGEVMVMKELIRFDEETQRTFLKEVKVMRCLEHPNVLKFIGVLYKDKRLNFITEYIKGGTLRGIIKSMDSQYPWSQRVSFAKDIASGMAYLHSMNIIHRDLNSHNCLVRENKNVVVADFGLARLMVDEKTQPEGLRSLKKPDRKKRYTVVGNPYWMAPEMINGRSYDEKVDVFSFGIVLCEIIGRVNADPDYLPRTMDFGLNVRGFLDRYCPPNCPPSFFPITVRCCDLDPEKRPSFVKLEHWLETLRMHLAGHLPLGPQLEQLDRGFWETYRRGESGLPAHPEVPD
T1 sequence (Q9P289 whole entry): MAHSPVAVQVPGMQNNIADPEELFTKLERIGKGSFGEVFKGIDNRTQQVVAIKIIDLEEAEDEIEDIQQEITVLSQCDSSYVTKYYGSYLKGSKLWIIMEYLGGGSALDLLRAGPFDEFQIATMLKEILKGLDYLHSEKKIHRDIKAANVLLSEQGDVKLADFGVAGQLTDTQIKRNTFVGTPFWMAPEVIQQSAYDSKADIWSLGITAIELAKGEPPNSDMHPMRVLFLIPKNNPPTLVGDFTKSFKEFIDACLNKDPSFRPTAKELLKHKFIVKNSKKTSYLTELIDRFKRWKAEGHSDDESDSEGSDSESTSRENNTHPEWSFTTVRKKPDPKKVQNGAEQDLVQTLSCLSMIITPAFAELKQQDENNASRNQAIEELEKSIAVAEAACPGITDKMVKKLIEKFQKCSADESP

Compound: CNC(=O)c1ccc2c(c1)C(=O)c1ccc(Nc3ccc(F)c(NC(=O)C4CC4)c3)cc1CC2 [Compound 2015]
- remaining activity at 0.2 µM ([1]; 0.2 µM 2015, read-out: MST4 residual activity): 78.4%
- remaining activity at 1 µM ([1]; 1 µM 2015, read-out: MST4 residual activity): 69.9%
- remaining activity at 0.2 µM ([1]; MST4, 0.2 µM, read-out: residual activity): 78.3%
- remaining activity at 1 µM ([1]; MST4, 1 µM, read-out: residual activity): 69.9%
- remaining activity at 0.2 µM ([2]; 0.2 µM 2015, read-out: AuroraA residual activity): 98.6%
- remaining activity at 1 µM ([2]; 1 µM 2015, read-out: AuroraA residual activity): 103%
- remaining activity at 0.2 µM ([2]; AuroraA, 0.2 µM, read-out: residual activity): 98.5%
- remaining activity at 1 µM ([2]; AuroraA, 1 µM, read-out: residual activity): 103%
- remaining activity at 0.2 µM ([3]; 0.2 µM 2015, read-out: LIMK1 residual activity): 102%
- remaining activity at 1 µM ([3]; 1 µM 2015, read-out: LIMK1 residual activity): 92.9%
- remaining activity at 0.2 µM ([3]; LIMK1, 0.2 µM, read-out: residual activity): 102%
- remaining activity at 1 µM ([3]; LIMK1, 1 µM, read-out: residual activity): 92.9%
- remaining activity at 0.2 µM ([4]; 0.2 µM 2015, read-out: SIK3 residual activity): 101%
- remaining activity at 1 µM ([4]; 1 µM 2015, read-out: SIK3 residual activity): 95.7%
- remaining activity at 0.2 µM ([4]; SIK3, 0.2 µM, read-out: residual activity): 101%
- remaining activity at 1 µM ([4]; SIK3, 1 µM, read-out: residual activity): 95.7%
- remaining activity at 1 µM ([5]; 1 µM 2015, read-out: NEK1 residual activity): 81.3%
- remaining activity at 1 µM ([5]; NEK1, 1 µM, read-out: residual activity): 81.3%
- remaining activity at 0.2 µM ([5]; read-out: NEK1 residual activity): 86.5%
- remaining activity at 0.2 µM ([5]; read-out: residual activity): 86.5%
- remaining activity at 0.2 µM ([6]; 0.2 µM 2015, read-out: GRK3 residual activity): 117%
- remaining activity at 1 µM ([6]; 1 µM 2015, read-out: GRK3 residual activity): 99.7%
- remaining activity at 0.2 µM ([6]; GRK3, 0.2 µM, read-out: residual activity): 117%
- remaining activity at 1 µM ([6]; GRK3, 1 µM, read-out: residual activity): 99.7%
